{
  "source": "patent US20090217396A1",
  "about": "“Inflammation models in neurodegenerative and arthritic disorders” (priority 2004, published 2009)",
  "molecules": {"B1": {"name": "IL-1β: recombinant IL-1β cytokine administered exogenously to cells or injected into the cisterna magna (protein, UniProt P10749 118-269, looked up)", "Interleukin-1 beta": "VPIRQLHYRLRDEQQKSLVLSDPYELKALHLNGQNINQQVIFSMSFVQGEPSNDKIPVALGLKGKNLYLSCVMKDGTPTLQLESVDPKQYPKKKMEKRFVFNKIEVKSKVEFESAEFPNWYISTSQAEHKPVFLGNNSGQDIIDFTMESVSS"}},
  "key": {"[1]": {"test_system": "293HGLVP/CrePr cells", "experiment": "RU486-induced CrePr activation of transfected IL-1β^XAT", "assay_type": "cell-based, human", "procedure": "Neurobiol Aging 23:977-84] and the expression of IL-1β and lacZ was evaluated following RU486 (10^-7M) administration.\nMol Ther 8: 790-95]. […] Please refer to FIG. 3 for summary of the experiment."}, "[2]": {"test_system": "primary rat endothelial cell cultures", "experiment": "Regulation of inflammation-related genes by IL-1β with or without indomethacin in endothelial cells", "assay_type": "cell-based", "procedure": "The effects of IL-1β were evaluated in vitro utilizing primary rat endothelial cell cultures as a representative rodent cell type. In this experiment, murine IL-1β (10 ng/mL) was administered exogenously to cultured primary cells, and subsequently examined the regulation of several inflammation-related genes at the transcript level over the course of 72 hours. These molecules include (A) the inducible isoform of cyclooxygenase (COX-2), intercellular adhesion molecule-1 (ICAM-1) and monocyte chemoattractant protein-1 (MCP-1), as well as (B) the […]. Panel (C) depicts enzyme activity levels of MMP-2 and MMP-9 as evaluated by zymography.\nThe regulation of pro-collagen IV was also included in the study as control (not an inflammatory gene)—Panel B.\nMol Ther 8: 790-95], rat endothelial cells were employed as a representative rodent model to investigate the effects of IL-1β on the regulation of ICAM-1, MCP-1, MMP-2 and MMP-9 at the transcriptional level (mRNA) as well as the enzyme activity level (zymography).\nNon-steroidal anti-inflammatory drugs (NSAIDS) are inhibitors of cyclooxygenase, a rate-limiting enzyme in the production of prostaglandins. Indomethacin, a prototype NSAID often employed in laboratory studies as well as in the hospital setting, has been evaluated for the potential to modulate the inflammatory response elicited by pro-inflammatory cytokines, such as IL-1β. To this end, rodent cells were utilized as a model to study the interaction between IL-1β, and indomethacin in vitro [Kyrkanides S, et al. (2000)."}, "[3]": {"test_system": "C57BL/6 mice", "details": "morphine intraperitoneal 30 min prior to formalin injection"}, "[4]": {"test_system": "adult mice", "experiment": "IL-1β injection into the cisterna magna: CGRP and GFAP IHC", "assay_type": "in vivo, mouse", "details": "10 ng in 2 μl into cisterna magna", "procedure": "FIG. 51 whose IL-1β injection into the cisterna magna induces neuronal excitation and astrocyte activation. Recombinant IL-1β was injected into the cisterna magna of adult mice (10 ng in 2 μl of aqueous solution). Neuronal excitation was evaluated by CGRP and astrocyte activation by GFAP IHC. (A) The saline-injected mouse is characterized by lack of CGRP expression at the main sensory nucleus. […] GFAP immunohistochemistry in (C) control and (D) experimental mice."}, "[5]": {"details": "INDO + IL-1β simultaneously vs IL-1β alone (FIG. 7)"}, "[6]": {"details": "murine IL-1β 10 ng/mL, over 72 hours (FIG. 6)"}, "[7]": {"details": "recombinant IL-1β alone (FIG. 7)"}},
  "note": "“Also recorded” adds a separate entry of the source.",
  "data": [
    {"molecule": "CC#C[C@]1(O)CC[C@H]2[C@@H]3CCC4=CC(=O)CCC4=C3[C@@H](c3ccc(N(C)C)cc3)C[C@@]21C", "note": "[RU486, mifepristone]", "values": [
      {"measurement": "IL-1β and lacZ mRNA (RT-PCR)", "setting": "[1]; RU486 10^-7M, IL-1β^XAT transiently transfected", "result": "up-regulation"},
      {"measurement": "secreted IL-1β protein in supernatant media (ELISA for human IL-1β)", "setting": "[1]; RU486-treated cells", "result": "significantly higher levels"},
      {"measurement": "IL-1β^XAT DNA recombination", "setting": "[1]; RU486 administration following IL-1β^XAT transfection", "result": "DNA excisional recombination"},
      {"measurement": "number of X-gal positive cells (β-galactosidase reporter)", "setting": "[1]; RU486 in culture media vs naïve cells", "result": "significant increase"}
    ]},
    {"molecule": "COc1ccc2c(c1)c(CC(=O)O)c(C)n2C(=O)c1ccc(Cl)cc1", "note": "[indomethacin]", "values": [
      {"measurement": "ICAM-1, MCP-1 and MMP-9 transcript levels", "setting": "[2]; [5]", "result": "further increased"},
      {"measurement": "collagenase activity of MMP-2 and MMP-9", "setting": "[2]; [5]", "result": "further increased"},
      {"measurement": "expression of inflammatory mediators induced by IL-1β", "setting": "[2]; indomethacin with IL-1β, rodent cells in vitro (FIG. 7)", "result": "further exacerbated"}
    ]},
    {"molecule": "CN1CC[C@]23c4c5ccc(O)c4O[C@H]2[C@@H](O)C=C[C@H]3[C@H]1C5", "note": "[morphine]", "values": [
      {"measurement": "orofacial grooming in formalin-challenged mice", "setting": "[3]", "result": "normalized; also recorded: attenuation of orofacial grooming in formalin-challenged mice to near normal levels"}
    ]},
    {"molecule": "B1", "values": [
      {"measurement": "MMP-2 enzyme activity (zymography)", "setting": "[2]; [6]", "result": "increased with time"},
      {"measurement": "mRNA levels of MMP-2", "setting": "[2]; [6]", "result": "not altered"},
      {"measurement": "synthesis of COX-2, MCP-1, ICAM-1 and MMP-9 (mRNA)", "setting": "[2]; [6]", "result": "upregulated"},
      {"measurement": "enzyme activity of MMP-2 and MMP-9 (zymography)", "setting": "[2]; [7]", "result": "upregulated"},
      {"measurement": "transcriptional expression of ICAM-1, MCP-1 and MMP-9 (RT-PCR)", "setting": "[2]; [7]", "result": "induced"},
      {"measurement": "astrocyte activation (GFAP IHC) in brain stem", "setting": "[4]", "result": "activation of astrocytes"},
      {"measurement": "CGRP expression at main sensory nucleus (neuronal excitation)", "setting": "[4]; vs saline", "result": "pronounced CGRP immunoreactivity"}
    ]}
  ]
}
